# System: MV-4-11 cells
# Assay: Gene expression microarray analysis (Affymetrix PrimeView) and GSEA
# Assay type: cell-based, human
# Parameters: RFU PODN (11730768_x_at) / Fold change /veh PODN (11730768_x_at) / RFU LINC00158 (11744669_a_at) / Fold change /veh LINC00158 (11744669_a_at) / RFU DUSP10 (11751237_a_at) / Fold change /veh DUSP10 (11751237_a_at) / RFU ID3 (11757404_x_at) / Fold change /veh ID3 (11757404_x_at) / RFU PLEKHG5 (11737974_s_at) / Fold change /veh PLEKHG5 (11737974_s_at) / RFU LRRC4B (11730491_at) / Fold change /veh LRRC4B (11730491_at) / RFU GIMAP4 (11747438_a_at) / Fold change /veh GIMAP4 (11747438_a_at) / RFU KRT8 (11758183_x_at) / Fold change /veh KRT8 (11758183_x_at) / RFU CNN1 (11734310_a_at) / Fold change /veh CNN1 (11734310_a_at) / RFU VPS37D (11726825_at) / Fold change /veh VPS37D (11726825_at) / RFU C10orf10 (11716522_x_at) / Fold change /veh C10orf10 (11716522_x_at) / RFU KIR2DL2 /// KIR2DL4 /// KIR2DL5A /// KIR2DL5B /// KIR2DS1 /// KIR2DS2 /// KIR2DS3 /// KIR2DS4 /// KIR3DL3 /// KIR3DL3 /// KIR3DS1 (11738374_at) / Fold change /veh KIR2DL2 /// KIR2DL4 /// KIR2DL5A /// KIR2DL5B /// KIR2DS1 /// KIR2DS2 /// KIR2DS3 /// KIR2DS4 /// KIR3DL3 /// KIR3DL3 /// KIR3DS1 (11738374_at) / RFU C1QL1 (11718748_at) / Fold change /veh C1QL1 (11718748_at) / RFU TMPRSS4 (11747572_a_at) / Fold change /veh TMPRSS4 (11747572_a_at) / RFU HAMP (11756126_x_at) / Fold change /veh HAMP (11756126_x_at) / RFU RNFT2 (11725882_a_at) / Fold change /veh RNFT2 (11725882_a_at) / RFU NR4A2 (11747474_a_at) / Fold change /veh NR4A2 (11747474_a_at) / RFU ABCC12 (11746883_a_at) / Fold change /veh ABCC12 (11746883_a_at) / RFU TMEM136 (11760407_x_at) / Fold change /veh TMEM136 (11760407_x_at) / RFU CLDN22 /// WWC2 (11732394_at) / Fold change /veh CLDN22 /// WWC2 (11732394_at) / RFU HLA-DPB1 (11760878_x_at) / Fold change /veh HLA-DPB1 (11760878_x_at) / RFU SPINT1 (11716480_a_at) / Fold change /veh SPINT1 (11716480_a_at) / RFU GAP43 (11754022_s_at) / Fold change /veh GAP43 (11754022_s_at) / RFU A4GNT (11735810_at) / Fold change /veh A4GNT (11735810_at) / RFU PRB3 (11715151_x_at) / Fold change /veh PRB3 (11715151_x_at) / RFU TUBB4B (11761932_at) / Fold change /veh TUBB4B (11761932_at) / RFU CAPN14 (11732068_a_at) / Fold change /veh CAPN14 (11732068_a_at) / RFU TMCC2 (11721928_a_at) / Fold change /veh TMCC2 (11721928_a_at) / RFU IRGQ (11745062_a_at) / Fold change /veh IRGQ (11745062_a_at) / RFU FAM174B (11720279_a_at) / Fold change /veh FAM174B (11720279_a_at) / RFU TMPRSS4 (11748680_a_at) / Fold change /veh TMPRSS4 (11748680_a_at) / RFU FAM212B (11763350_a_at) / Fold change /veh FAM212B (11763350_a_at) / RFU PLEKHG5 (11743358_a_at) / Fold change /veh PLEKHG5 (11743358_a_at) / RFU ZSCAN30 (11745921_a_at) / Fold change /veh ZSCAN30 (11745921_a_at) / RFU CMKLR1 (11741424_a_at) / Fold change /veh CMKLR1 (11741424_a_at) / RFU LOC101060620 /// MAPK8IP1 (11723275_at) / Fold change /veh LOC101060620 /// MAPK8IP1 (11723275_at) / RFU SPTSSB (11747773_x_at) / Fold change /veh SPTSSB (11747773_x_at) / RFU PRSS12 (11739890_at) / Fold change /veh PRSS12 (11739890_at) / RFU BIN1 (11741810_x_at) / Fold change /veh BIN1 (11741810_x_at) / RFU WNT11 (11732464_a_at) / Fold change /veh WNT11 (11732464_a_at) / RFU C10orf10 (11716521_a_at) / Fold change /veh C10orf10 (11716521_a_at) / RFU C5orf56 (11738089_at) / Fold change /veh C5orf56 (11738089_at) / RFU CYB561 (11721691_x_at) / Fold change /veh CYB561 (11721691_x_at) / RFU ANKRD19P (11752326_a_at) / Fold change /veh ANKRD19P (11752326_a_at) / RFU OR2T12 /// OR2T33 /// OR2T8 (11738714_s_at) / Fold change /veh OR2T12 /// OR2T33 /// OR2T8 (11738714_s_at) / RFU VCAN (11748164_a_at) / Fold change /veh VCAN (11748164_a_at) / RFU JSRP1 (11732532_at) / Fold change /veh JSRP1 (11732532_at) / RFU KRTAP10-11 (11738290_x_at) / Fold change /veh KRTAP10-11 (11738290_x_at) / RFU MYO3A (11730013_a_at) / Fold change /veh MYO3A (11730013_a_at) / RFU EBF3 (11725865_a_at) / Fold change /veh EBF3 (11725865_a_at) / RFU CAMK2N1 (11719241_x_at) / Fold change /veh CAMK2N1 (11719241_x_at) / RFU C5orf56 (11738088_a_at) / Fold change /veh C5orf56 (11738088_a_at) / RFU OLFML3 (11715873_a_at) / Fold change /veh OLFML3 (11715873_a_at) / RFU LOC100653217 /// NTM (11731650_a_at) / Fold change /veh LOC100653217 /// NTM (11731650_a_at) / RFU MAPK11 (11762145_a_at) / Fold change /veh MAPK11 (11762145_a_at) / RFU FIZ1 (11724087_x_at) / Fold change /veh FIZ1 (11724087_x_at) / RFU OASL (11726364_x_at) / Fold change /veh OASL (11726364_x_at) / RFU SOX15 (11748057_x_at) / Fold change /veh SOX15 (11748057_x_at) / RFU CD79A (11719716_a_at) / Fold change /veh CD79A (11719716_a_at) / RFU HIST1H1D (11736915_at) / Fold change /veh HIST1H1D (11736915_at) / RFU CASKIN2 (11723855_a_at) / Fold change /veh CASKIN2 (11723855_a_at) / RFU LOC730098 (11760151_x_at) / Fold change /veh LOC730098 (11760151_x_at) / RFU OR4N2 (11742367_at) / Fold change /veh OR4N2 (11742367_at) / RFU PRRT2 (11749266_a_at) / Fold change /veh PRRT2 (11749266_a_at) / RFU SNX32 (11753110_a_at) / Fold change /veh SNX32 (11753110_a_at) / RFU CDHR5 (11726645_a_at) / Fold change /veh CDHR5 (11726645_a_at) / RFU RCAN1 (11760418_a_at) / Fold change /veh RCAN1 (11760418_a_at) / RFU FAM167A (11723789_a_at) / Fold change /veh FAM167A (11723789_a_at) / RFU FAM26E (11764081_at) / Fold change /veh FAM26E (11764081_at) / RFU ISYNA1 (11749810_s_at) / Fold change /veh ISYNA1 (11749810_s_at) / RFU ACY1 (11761880_at) / Fold change /veh ACY1 (11761880_at) / RFU 11764098_at / Fold change /veh 11764098_at / RFU SAMD14 (11745864_x_at) / Fold change /veh SAMD14 (11745864_x_at) / RFU NPB (11741838_a_at) / Fold change /veh NPB (11741838_a_at) / RFU TMPRSS6 (11731388_a_at) / Fold change /veh TMPRSS6 (11731388_a_at) / RFU KRTAP10-2 (11738614_at) / Fold change /veh KRTAP10-2 (11738614_at) / RFU ARHGAP8 /// PRR5-ARHGAP8 (11727945_x_at) / Fold change /veh ARHGAP8 /// PRR5-ARHGAP8 (11727945_x_at) / RFU KRTAP5-7 /// NADSYN1 (11734609_at) / Fold change /veh KRTAP5-7 /// NADSYN1 (11734609_at) / RFU RASL12 (11751679_a_at) / Fold change /veh RASL12 (11751679_a_at) / RFU CDKN2B (11736163_a_at) / Fold change /veh CDKN2B (11736163_a_at) / RFU PRF1 (11729649_at) / Fold change /veh PRF1 (11729649_at) / RFU, ZNF638 /// ZNF638-IT1 / Fold change vs veh, ZNF638 /// ZNF638-IT1 / RFU, PANK3 / Fold change vs veh, PANK3 / RFU, SH3YL1 / Fold change vs veh, SH3YL1 / RFU, ZEB2 / Fold change vs veh, ZEB2 / RFU, NRIP1 / Fold change vs veh, NRIP1 / RFU, PTTG1IP / Fold change vs veh, PTTG1IP / RFU, CAPN2 / Fold change vs veh, CAPN2 / RFU, MED14 / Fold change vs veh, MED14 / RFU, SNORA58 / Fold change vs veh, SNORA58 / RFU, C1orf63 / Fold change vs veh, C1orf63 / RFU, LRRFIP1 / Fold change vs veh, LRRFIP1 / RFU, NDUFAF7 / Fold change vs veh, NDUFAF7 / RFU, SLC12A2 / Fold change vs veh, SLC12A2 / RFU, IBTK / Fold change vs veh, IBTK / RFU, ESF1 / Fold change vs veh, ESF1 / Fold change vs veh, TMEM50B / RFU, TAOK1 / Fold change vs veh, TAOK1 / RFU, ACBD3 / Fold change vs veh, ACBD3 / RFU, TMA16 / Fold change vs veh, TMA16 / RFU, RWDD3 / Fold change vs veh, RWDD3 / RFU, BCAT1 / Fold change vs veh, BCAT1 / RFU, EDEM3 / Fold change vs veh, EDEM3 / RFU, TMEM33 / Fold change vs veh, TMEM33 / RFU, WDR75 / Fold change vs veh, WDR75 / RFU, AHCTF1 / Fold change vs veh, AHCTF1 / RFU, TFRC / Fold change vs veh, TFRC / RFU, ZDHHC17 / Fold change vs veh, ZDHHC17 / RFU, NOM1 / Fold change vs veh, NOM1 / RFU, ARL8B / Fold change vs veh, ARL8B / RFU, ZBTB11 / Fold change vs veh, ZBTB11 / RFU, TAMM41 / Fold change vs veh, TAMM41 / RFU, KIAA1704 /// LOC100996395 / Fold change vs veh, KIAA1704 /// LOC100996395 / RFU, ING1 / Fold change vs veh, ING1 / RFU, TRMT61B / Fold change vs veh, TRMT61B / RFU, FUBP3 / Fold change vs veh, FUBP3 / RFU, TP53 / Fold change vs veh, TP53 / RFU, TNKS2 / Fold change vs veh, TNKS2 / RFU, ZFP14 / Fold change vs veh, ZFP14 / RFU, ACTR2 / Fold change vs veh, ACTR2 / RFU, PPP3R1 / Fold change vs veh, PPP3R1 / RFU, PIK3R1 / Fold change vs veh, PIK3R1 / RFU, HNRNPA1 / Fold change vs veh, HNRNPA1 / RFU, RNF170 / Fold change vs veh, RNF170 / RFU, ZNF28 / Fold change vs veh, ZNF28 / RFU, RNGTT / Fold change vs veh, RNGTT / RFU, OGT / Fold change vs veh, OGT / RFU, BRD1 / Fold change vs veh, BRD1 / RFU, MARS / Fold change vs veh, MARS / RFU, ZNF655 / Fold change vs veh, ZNF655 / RFU, FAHD1 / Fold change vs veh, FAHD1 / RFU, BDP1 / Fold change vs veh, BDP1 / RFU, LRRCC1 / Fold change vs veh, LRRCC1 / RFU, ARID1A / Fold change vs veh, ARID1A / RFU, ZNF146 / Fold change vs veh, ZNF146 / RFU, ZNF330 / Fold change vs veh, ZNF330 / RFU, GPN3 / Fold change vs veh, GPN3 / RFU, C9orf123 / Fold change vs veh, C9orf123 / RFU, N4BP2L2 / Fold change vs veh, N4BP2L2 / RFU, ARFIP1 / Fold change vs veh, ARFIP1 / RFU, FAM179B / Fold change vs veh, FAM179B / RFU, BCL10 / Fold change vs veh, BCL10 / RFU, UHRF1BP1L / Fold change vs veh, UHRF1BP1L / RFU, BET1 / Fold change vs veh, BET1 / RFU, CNOT2 / Fold change vs veh, CNOT2 / RFU, ZNF268 / Fold change vs veh, ZNF268 / Fold change vs veh, ZNF507 / RFU, DGCR2 / Fold change vs veh, DGCR2 / RFU, WDSUB1 / Fold change vs veh, WDSUB1 / Fold change vs veh, HSP90B1 /// MIR3652 / RFU, ADSS / Fold change vs veh, ADSS / RFU, GK / Fold change vs veh, GK / RFU, ZNF148 / Fold change vs veh, ZNF148 / RFU, TAF9 / Fold change vs veh, TAF9 / RFU, SLC1A5 / Fold change vs veh, SLC1A5 / RFU, SLMO2 / Fold change vs veh, SLMO2 / RFU, ABCC4 / Fold change vs veh, ABCC4 / RFU, LOC101060439 /// RAP1B / Fold change vs veh, LOC101060439 /// RAP1B / RFU, RFX7 / Fold change vs veh, RFX7 / RFU, GTPBP10 / Fold change vs veh, GTPBP10 / RFU, CNEP1R1 / Fold change vs veh, CNEP1R1 / RFU, BIVM-ERCC5 /// ERCC5 / Fold change vs veh, BIVM-ERCC5 /// ERCC5 / RFU, ILF3 / Fold change vs veh, ILF3 / RFU 11762660_at / Fold change /veh 11762660_at / RFU VCAN (11757783_s_at) / Fold change /veh VCAN (11757783_s_at) / RFU DDX43 (11728927_at) / Fold change /veh DDX43 (11728927_at) / RFU KRT8 (11758188_x_at) / Fold change /veh KRT8 (11758188_x_at) / RFU NKD1 (11759106_at) / Fold change /veh NKD1 (11759106_at) / RFU SRD5A1 (11742802_a_at) / Fold change /veh SRD5A1 (11742802_a_at) / RFU TPSAB1 /// TPSB2 (11721975_s_at) / Fold change /veh TPSAB1 /// TPSB2 (11721975_s_at) / RFU GSTM3 (11746129_a_at) / Fold change /veh GSTM3 (11746129_a_at) / RFU IL23R (11737362_x_at) / Fold change /veh IL23R (11737362_x_at) / RFU TMEM51 (11727254_a_at) / Fold change /veh TMEM51 (11727254_a_at) / RFU PIWIL2 (11732686_x_at) / Fold change /veh PIWIL2 (11732686_x_at) / RFU ORM1 (11744905_x_at) / Fold change /veh ORM1 (11744905_x_at) / RFU CCDC152 (11743942_at) / Fold change /veh CCDC152 (11743942_at) / RFU ECM1 (11717891_a_at) / Fold change /veh ECM1 (11717891_a_at) / RFU IL23R (11748794_a_at) / Fold change /veh IL23R (11748794_a_at) / RFU TNFAIP8L3 (11732012_x_at) / Fold change /veh TNFAIP8L3 (11732012_x_at) / RFU MBOAT4 (11741988_at) / Fold change /veh MBOAT4 (11741988_at) / RFU 11764193_at / Fold change /veh 11764193_at / RFU TMEM53 (11763286_at) / Fold change /veh TMEM53 (11763286_at) / RFU MAGEB2 (11727129_at) / Fold change /veh MAGEB2 (11727129_at) / RFU TMEM200A (11744735_a_at) / Fold change /veh TMEM200A (11744735_a_at) / RFU CCDC152 (11751479_a_at) / Fold change /veh CCDC152 (11751479_a_at) / RFU FAM211A (11726209_a_at) / Fold change /veh FAM211A (11726209_a_at) / RFU RGS16 (11746705_a_at) / Fold change /veh RGS16 (11746705_a_at) / RFU VCAN (11755009_s_at) / Fold change /veh VCAN (11755009_s_at) / RFU RHOB (11743442_s_at) / Fold change /veh RHOB (11743442_s_at) / RFU RGS16 (11720943_a_at) / Fold change /veh RGS16 (11720943_a_at) / RFU RGS16 (11720944_at) / Fold change /veh RGS16 (11720944_at) / RFU, VPS4B / Fold change vs veh, VPS4B / RFU, CREB1 / Fold change vs veh, CREB1 / RFU, DNAJC13 / Fold change vs veh, DNAJC13 / RFU, GNAQ / Fold change vs veh, GNAQ / RFU, CDK5R1 / Fold change vs veh, CDK5R1 / RFU, ZRANB3 / Fold change vs veh, ZRANB3 / RFU, CUL4A / Fold change vs veh, CUL4A / RFU, CCNY / Fold change vs veh, CCNY / RFU, UFL1 / Fold change vs veh, UFL1 / RFU, COG3 / Fold change vs veh, COG3 / RFU, DIAPH2 / Fold change vs veh, DIAPH2 / RFU, SKA2 / Fold change vs veh, SKA2 / RFU, AFF3 / Fold change vs veh, AFF3 / RFU, LMF1 / Fold change vs veh, LMF1 / RFU, IPO11 / Fold change vs veh, IPO11 / RFU, DFFB / Fold change vs veh, DFFB / RFU, FOXP1 / Fold change vs veh, FOXP1 / RFU, CARD8 / Fold change vs veh, CARD8 / RFU, STRN3 / Fold change vs veh, STRN3 / RFU, ADK / Fold change vs veh, ADK / RFU, RASSF2 / Fold change vs veh, RASSF2 / RFU, WIPF1 / Fold change vs veh, WIPF1 / RFU, LARP1B / Fold change vs veh, LARP1B / RFU, RASA1 / Fold change vs veh, RASA1 / RFU, RB1 / Fold change vs veh, RB1 / RFU, PPFIA1 / Fold change vs veh, PPFIA1 / RFU, MAT2A / Fold change vs veh, MAT2A / RFU, CCT5 / Fold change vs veh, CCT5 / RFU, WDR92 / Fold change vs veh, WDR92 / RFU, CUX1 / Fold change vs veh, CUX1 / RFU, TTC7A / Fold change vs veh, TTC7A / RFU, TMEM135 / Fold change vs veh, TMEM135 / RFU, DEPTOR / Fold change vs veh, DEPTOR / RFU, CPM / Fold change vs veh, CPM / RFU, DNAJB6 / Fold change vs veh, DNAJB6 / RFU, CACNA2D3 / Fold change vs veh, CACNA2D3 / RFU, DTX4 / Fold change vs veh, DTX4 / RFU, TFCP2 / Fold change vs veh, TFCP2 / RFU, GMCL1 /// GMCL1P1 / Fold change vs veh, GMCL1 /// GMCL1P1 / RFU, AEBP2 / Fold change vs veh, AEBP2 / RFU, SNHG1 /// SNORD22 /// SNORD25 /// SNORD26 /// SNORD27 /// SNORD28 /// SNORD29 /// SNORD31 / Fold change vs veh, SNHG1 /// SNORD22 /// SNORD25 /// SNORD26 /// SNORD27 /// SNORD28 /// SNORD29 /// SNORD31 / Fold change (Aza/veh), C12orf56 (ProbeSet 11735607_a_at) / Fold change (ACY-1035/veh), C12orf56 (ProbeSet 11735607_a_at) / Fold change (Aza/veh), FGFR1OP (ProbeSet 11751329_s_at) / Fold change (ACY-1035/veh), FGFR1OP (ProbeSet 11751329_s_at) / Fold change (Aza/veh), VPS36 (ProbeSet 11739960_a_at) / Fold change (ACY-1035/veh), VPS36 (ProbeSet 11739960_a_at) / RFU SYPL1 (11715823_x_at) / Fold change /veh SYPL1 (11715823_x_at) / RFU IGFBP7 (11715501_s_at) / Fold change /veh IGFBP7 (11715501_s_at) / RFU REEP3 (11722064_at) / Fold change /veh REEP3 (11722064_at) / RFU IGLL1 (11728026_x_at) / Fold change /veh IGLL1 (11728026_x_at): dose or concentration left out as unconfirmed
# Settings: MV-4-11 cells, 48 hours
smiles,measurement,value
Nc1ccc(-c2cccs2)cc1NC(=O)c1ccc2c(c1)cc(C1CC1)n2CCN1CCOCC1 [ACY-1035],Fold change /veh ECM1 (11717891_a_at),0.95

# From article PMC5218480 (PLoS ONE, 2017)
